# Results as given in patent US6472390B1, “Use of therapeutic dosages for nitric oxide donors which do not significantly lower blood pressure or pulmonary artery pressure” (Duke University, priority 2001, dated 2002).
# Legend:
# [1] = regardless of dosage; cited from earlier work
# [2] = tested on: patient with a transient ischemic attack; test: patient with transient ischemic attack (Example XIII); format: in vivo, human
# Description: A person presents with a transient ischemic attack evidenced by confusion and headache. Carotid dopplers show 98% new occlusion of the right carotid artery. Systolic blood pressure is 180 mm of mercury. They are given an infusion intravenously of S-nitrosocysteinyl glycine 10 μg with resolution of the headache. The systemic blood pressure remains 175 mm of mercury. Symptoms of headache and confusion resolve. The patient is then maintained on oral S-nitrosoglutathione 1-10 μg 3×/day with no recurrence of transient ischemic symptoms.
# [3] = tested on: isolated buffer-perfused lungs (IPL) of rabbits; test: isolated buffer-perfused rabbit lung, pulmonary artery pressure (Example III); conditions: for change in mean pulmonary artery pressure (Ppa) on injection of NO donor: GSNO 50 μM or SIN1 100 μM injected into the recirculating system; for constriction (change in Ppa) by serotonin: serotonin 1 micromolar sixty minutes after GSNO 50 μM or SIN1 100 μM
# platelets = conditions: doses that do not acutely drop blood pressure; cited from earlier work
# [4] = tested on: patient with poorly controlled asthma; test: patient with poorly controlled asthma (Example IX); format: in vivo, human
# Description: A person with poorly controlled asthma presents with an exacerbation. […] The frequency of asthma exacerbations decline.
# mouse aorta rings = test: vascular ring bioassay on mouse aorta rings (Example I)
# Description: The assay involves a chamber of solution into which mouse aorta ring attached to a force transducer is placed where the solution is bubbled with 21% O2/5% CO2/balance N2. The force transducer moves a pen in response to contraction and relaxation effects to give a tracing of forces (tension) in the Y-direction versus time in the X-direction on a chart. Various agents as described later are applied to the aorta rings to give to give contraction and relaxation effects. Tracings of force (tension) in the Y-direction versus time in the X-direction are obtained with upward direction indicating contraction and downward direction indicating relaxation. […] On FIG. 1, “E” means application of phenylephrine, a constricting agent, and the concentrations thereof at particular times are denoted; “ACh” means application of acetyIcholine (which causes a relaxation effect in response to endogenous nitric oxide) and the concentration thereof at particular times are denoted; and “GSNO” means application of S-nitrosoglutathione, an NO donor, and the concentrations thereof at particular times are denoted. […] As further shown in FIG. 1, flushing is then carried out three times then and one more time; the flushing is carried out (with Krebs-Henseleit solution described hereinafter in Example III) and removes the acetylcholine. As further shown in FIG. 1, phenylephrine is then applied starting at a concentration of 10^−7 molar increasing to a concentration of 10^−5.5 molar. […] As further shown in FIG. 1, flushing is then carried out three times (with Krebs-Henseleit solution); and then one more time with the same flushing agent; this flushing removes the S-nitrosoglutathione.
# [5] = tested on: patient with primary pulmonary hypertension class II; test: patient with primary pulmonary hypertension (Example VIII); format: in vivo, human
# Description: […] They are given 10 mM GSNO in 1 cc saline nebulized 3×/day. Symptoms of shortness of breath resolve but pulmonary artery pressure and systemic pressure are unchanged with acute administration. After four months of therapy, pulmonary artery pressure has dropped by 5 mm of mercury and the patient's symptoms have improved. The patient is subsequently given oral GSNO at 10 μg TID and doses are empirically changed to prevent any significant change in blood pressure.
# [6] = tested on: patient with severe three vessel disease; test: patient with severe three vessel coronary disease (Example XVII); format: in vivo, human; conditions: oral, titrated so that resting systolic blood pressure does not change; three years
# Description: They do well with no symptoms of coronary disease over the following three years.
# [7] = tested on: patient with uncontrolled hypertension; test: patient with uncontrolled hypertension (Example XVI); format: in vivo, human; conditions: for exacerbation on maintenance: maintained on GSNO together with ethyl nitrite; for blood pressure (acute): oral GSNO 1 to 10 micrograms QID together with ethyl nitrite 0.025% (1 cc) 3×/day; for blood pressure (acute) / blood pressure: baseline 200/110; for blood pressure: over the following two weeks, GSNO together with ethyl nitrite
# Description: A person with uncontrolled hypertension of 200/90 mm of mercury on a complex medical regimen including angiotension converting enzyme inhibitor, an alpha blocker, and beta blocker has a blood pressure of 200/110. They are begun on oral GSNO at 1 to 10 micrograms QID and ethyl nitrite 0.025% (1 cc) 3×/day. […] However, over the following two weeks the blood pressure falls to 170/100 consistent with better management of their disease.
# [8] = tested on: artery rings from New Zealand white rabbits; test: vascular ring bioassay on rabbit artery rings (Example II); conditions: NO donor 1 μM
# Description: A vascular ring bioassay was carried out as follows: Artery rings (3 mm) were harvested from New Zealand white rabbits and mounted in 25 ml tissue baths filled with Krebs-Henseleit buffer and bubbled with 21% O2/5% CO2/balance N2. Isometric tension was measured. All rings in the study were suspended with similar baseline levels of tension (˜2 g). Tissue baths were thoroughly rinsed with fresh buffer between interventions. Three runs were carried out. In one run denoted the control, no additive was added. […] In a third run, SIN1 was added to provide a concentration of 1 μM. […] After flushing with solution as described in Example I, phenylephrine was then added in each case to provide a concentration of 1 to 10 μM. The results are shown in FIG. 2 where percent increase in tone is indicated on the Y-axis and additive or absence thereof (control) is indicated on the X-axis.
# [9] = tested on: patient with claudication and a leg ulcer; test: patient with claudication and leg ulcer (Example XV); format: in vivo, human
# Description: A person with risk factors of hypertension, diabetes, and hypercholestolemia and a strong family history of atherosclerosis presents with claudication and a leg ulcer. They are begun on an infusion of (SIN-1) 0.3 μm/kg per hour for a total of 1 mg with no change in blood pressure. Symptoms of rest pain resolve. They are then begun on oral S-nitrosoglutathione 1-10 μg 3×/day with improvement of duration of exercise and no recurrence of rest pain.
# [10] = tested on: patient with recurrent episodes of acute vasospastic angina; test: patient with acute vasospastic angina (Example VII); format: in vivo, human
# Description: A person who complains of recurrent episodes of acute vasospastic angina is treated with S-nitrosoglutathione (GSNO) at 1-1,000 μg orally 4×/day. Blood pressure is unchanged and acute symptoms resolve. In addition, the frequency of vasospastic chest pain decreases over the following three weeks.
# [11] = tested on: patient with congestive heart failure, hypotension and angina; test: patient with congestive heart failure, hypotension and angina, intraarterial infusion (Example XIX); format: in vivo, human; conditions: 200 nmol/kg via the brachial artery over 3 minutes
# Description: A person with congestive heart failure develops hypotension and angina. S-nitrosoglutathione (200 nmol/kg) is infused via the brachial artery over 3 minutes. The angina resolves. The systolic blood pressure rises from 85 mm Hg to 100 mm Hg.
# [12] = tested on: patient receiving erythropoietin who develops chest pain; test: patient on erythropoietin with chest pain, thiol (Example XXI); format: in vivo, human
# Description: A person receiving erythropoietin to raise red blood count depleted by renal failure, develops chest pain (caused by increased concentration of red blood cells).
# [13] = tested on: patient receiving erythropoietin who develops chest pain; test: patient on erythropoietin with chest pain, NO donor infusion (Example XX); format: in vivo, human; conditions: infusion 1-10 nmolkg/min
# Description: A person receiving erythropoietin to raise red blood count depleted because of treatment for cancer or renal failure, develops chest pain (caused by increased concentration of red blood cells).
# dogs = test: systemic infusion of NO donor into dogs, systemic blood pressure (Example VI); format: in vivo, dog; conditions: without and with ischemia, S-nitrosocysteine 3 nmol/kg or S-nitrosoalbumin 10 nmol/kg infused systemically
# Description: In another case, S-nitrosocysteine (3 nmol/kg) or S-nitrosoalbumin (10 nmol/kg) is infused systemically into dogs. […] The response to S-nitrosoalbimim infusion is no different. The infusions of NO donors result in reaction with membrane receptors in red blood cells.
# [14] = tested on: patient with symptoms of depression; test: patient with depression (Example XIV); format: in vivo, human
# Description: A person presents with symptoms of depression. They are begun on oral molsidomine (SIN-1) 10 μg per kg dose-adjusted so that blood pressure is unchanged. Over the following three weeks the symptoms of depression resolve and the patient is maintained on this dose with no recurrence.
# [15] = tested on: patient with esophageal spasm; test: patient with esophageal spasm (Example XI); format: in vivo, human
# Description: A alcoholic with esophageal spasm is given 2 cc of 0.125% ethyl nitrite in ethanol 3×/day.
# [16] = tested on: patient with recurrent rectal spasm; test: patient with recurrent rectal spasm (Example X); format: in vivo, human
# Description: A person with recurrent rectal spasm is given oral ethyl nitrite 0.125% in ethanol (1 cc) 3×/day. […] They then continued on this therapy with a decrease in incidence of rectal pain.
# [17] = tested on: infant with pyloric stenosis; test: infant with pyloric stenosis (Example XII); format: in vivo, human; conditions: 2 cc of 0.125% in ethanol 3×/day
# Description: An infant with pyloric stenosis is given 2 cc of 0.125% ethyl nitrite in ethanol 3×/day.
# Symptoms of intestinal pain resolve.
# [18] = tested on: patient with anxiety and stress; test: patient with anxiety and stress (Example XVIII); format: in vivo, human; conditions: ½ to 1 inch patch 3×/day titrated to avoid change in blood pressure or headache
# rats = test: infusion into rats, mean arterial blood pressure and heart rate (Example IV); format: in vivo, rat
# Description: Rats (n=4) were infused via femoral vein with 200 nmol/kg of S-nitrosothiol (S-nitrosohemoglobin). Mean arterial blood pressure (MAP) and heart rate (HR) were measured.
# In another case, rats (n=4) were infused via femoral artery with 200 nmol/kg of S-nitrosothiol (S-nitrosohemoglobin). Mean arterial blood pressure (MAP) and heart rate (HR) were measured.
# [19] = infusion 0.3 μm/kg per hour for a total of 1 mg
# [20] = oral 0.125% in ethanol (1 cc) 3×/day
# [21] = 200 nmol/kg via femoral artery, rats
# [22] = 200 nmol/kg via femoral vein, rats
compound,measurement,setting,value
"O=C(Oc1cccc(CO[N+](=O)[O-])c1)c1ccccc1O [B-NOD, 2-hydroxybenzoic acid 3-nitrooxymethylphenyl ester]",acute lowering of mean arterial blood pressure,[1],≤ 10%
"N[C@@H](CCC(=O)N[C@@H](CSN=O)C(=O)NCC(=O)O)C(=O)O [GSNO, S-nitrosoglutathione]",recurrence of transient ischemic symptoms,[2]; oral 1-10 μg 3×/day maintenance,no recurrence
same,change in mean pulmonary artery pressure (Ppa) on injection of NO donor,[3],did not cause change in Ppa
same,constriction (change in Ppa) by serotonin,[3],prevented constriction
same,thromboembolic events,platelets,inhibit other thromboembolic events
same,frequency of asthma exacerbations,"[4]; oral 10 μg Q 6 hours, continued",decline
same,effect on tension of phenylephrine-contracted ring,mouse aorta rings; S-nitrosoglutathione 1 nanomolar increasing to 10 micromolar,relaxing (contraction-attenuating) effect
same,contracting response to phenylephrine after pretreatment and flushing,mouse aorta rings; phenylephrine 10^-7 to 10^-5 molar after S-nitrosoglutathione removed by flushing,does not cause a contracting response
same,symptoms of shortness of breath,[5]; 10 mM in 1 cc saline nebulized 3×/day,resolve
same,pulmonary artery pressure and systemic pressure,"[5]; acute administration, 10 mM in 1 cc saline nebulized",unchanged
same,drop of pulmonary artery pressure,[5]; after four months of therapy,5 mm of mercury
same,patient's symptoms,[5]; after four months of therapy,improved
same,symptoms of coronary disease,[6],no symptoms
same,exacerbation on maintenance,[7],no further exacerbation
same,blood pressure (acute),[7],does not change
same,blood pressure,[7],170/100
same,effect on resting tone (relaxing effect),[8],no effect on resting tone
same,duration of exercise,[9]; oral 1-10 μg 3×/day,improvement
same,recurrence of rest pain,[9]; oral 1-10 μg 3×/day,no recurrence
same,acute symptoms of vasospastic angina,"[10]; 1-1,000 μg orally 4×/day",resolve
same,blood pressure,"[10]; 1-1,000 μg orally 4×/day",unchanged
same,frequency of vasospastic chest pain,[10]; over the following three weeks,decreases
same,angina,[11],resolves
same,systolic blood pressure after infusion,[11]; rises from 85 mm Hg,100 mm Hg
CC(=O)N[C@@H](CS)C(=O)O [N-acetylcysteine],frequency of angina,"[12]; 600 ng, PO, TID",decreases
same,blood pressure,"[12]; 600 ng, PO, TID, over three weeks",drops
same,blood pressure,[12]; infusion 50 ng/kg,without a change
same,chest pain,[12]; infusion 50 ng/kg,alleviating their chest pain
CCOC(=O)[C@@H](N)CSN=O [S-nitrosocysteine ethyl ester],airway tone,"[4]; inhaled 1-1,000 μg nebulized in 10 cc",does not significantly improve
same,acute episode of asthma,[4]; over the following three days,brought under control
same,blood pressure,[13],without a change
same,chest pain,[13],alleviating chest pain
N[C@@H](CSN=O)C(=O)O [S-nitrosocysteine],systemic blood pressure,dogs,no effect
N[C@@H](CSN=O)C(=O)NCC(=O)O [S-nitrosocysteinyl glycine],systemic blood pressure,"[2]; after intravenous infusion 10 μg, systolic 180 mm of mercury before",175 mm of mercury
same,symptoms of headache and confusion,[2]; intravenous infusion 10 μg,resolve
"CCOC(=O)[N-]c1cn(N2CCOCC2)n[o+]1 [SIN1, molsidomine]",change in mean pulmonary artery pressure (Ppa) on injection of NO donor,[3],did not cause change in Ppa
same,constriction (change in Ppa) by serotonin,[3],prevented constriction
same,recurrence of depression,[14]; maintained on this dose,no recurrence
same,symptoms of depression,"[14]; oral 10 μg per kg dose-adjusted so that blood pressure is unchanged, over three weeks",resolve
same,effect on resting tone (relaxing effect),[8],did not cause a relaxing effect
same,blood pressure,[9]; [19],no change
same,symptoms of rest pain,[9]; [19],resolve
CCON=O [ethyl nitrite],symptoms of esophageal pain,[15]; 2 cc of 0.125% in ethanol 3×/day,resolve
same,recurrence of symptoms,[15]; same maintenance dose,do not recur
same,incidence of rectal pain,[16]; continued therapy,decrease
same,blood pressure,[16]; [20],does not change
same,symptoms of rectal pain,[16]; [20],resolve
same,exacerbation on maintenance,[7],no further exacerbation
same,blood pressure (acute),[7],does not change
same,blood pressure,[7],170/100
same,symptoms of intestinal pain,[17],resolve
O=[N+]([O-])OCC(CO[N+](=O)[O-])O[N+](=O)[O-] [nitroglycerin],symptoms of anxiety and stress,[18],alleviated in 4 days
CNC[C@H](O)c1cccc(O)c1 [phenylephrine],effect on tension of ring,mouse aorta rings; phenylephrine 10^-8 molar increasing to 10^-5.5 molar,contracting effect
S-nitrosohemoglobin,heart rate,rats; [21],increased
same,mean arterial blood pressure,rats; [21],increased
same,heart rate,rats; [22],no effect
same,resting blood pressure (MAP),rats; [22],no effect
same,blood pressure,rats; higher doses of S-nitrosothiol,fall
